Experimental data published in patent publication US20110229521A1, “NUTRITIONAL SUPPORT OF THE IMMUNE SYSTEM DURING ANTI-CANCER TREATMENT” (priority 2008, published 2011).

Columns and labels:
γδ T cells = conditions: acid hydrolysed, diluted in media; peripheral blood mononuclear cells; cited from earlier work
MCA-OVA tumor cells = assay: Tumor growth evaluation by caliper, supplemented diets with or without chemotherapy (Example 2); format: in vivo, C57BL/6 (H-2b) mice
Description: (§1) Mice. […] The animals were distributed into 7 different group diets. There was a control group that received the diet AIN 93 for adult rodents (maintenance). […] Control animals without chemotherapeutic treatment were run in parallel for all tested diets. Body weight was assessed every two days. Blood samples were obtained at day 2, 4 and 10 after the chemo-treatment and at sacrifice (14 or 28 days). An autopsy was performed and tumor mass was assessed.
(§2) Cancer Cell Lines. Methylcholanthrene (MCA) induced sarcoma cell line expressing the exogenous antigen ovalbumin (OVA) was grown in DMEM or RPMI 1640 supplemented with 2 mM L-glutamine, 10 mM HEPES, 20 μM 2-mercaptoethanol, 150 U/mL streptomycin, 200 U/mL penicillin, and 10% heat-inactivated FBS. 1×10 ^6 tumor cells were injected in the flank of the mice 6 days prior to the chemotherapy.
Tumor growth evaluation. Growth of tumors was monitored every 2 d by using calipers, and tumor volume was calculated by using the formula length×width×width×0.52 mm^3.

[1] = Body weight, haematological evaluation and flow cytometry of tumor-bearing mice on supplemented diets with chemotherapy (Example 2); format: in vivo, C57BL/6 (H-2b) mice; conditions: for Global lymphocyte population: following chemotherapy
Description: as §1
Haematological evaluation.
Flow cytometric analysis.

[2] = test system: Methylcholanthrene (MCA) induced sarcoma cell line expressing the exogenous antigen for ovalbumin (OVA); assay: Tumor growth evaluation by caliper after chemotherapy (Example 1); format: in vivo, C57BL/6 (H-2b) mice
Description: as §2, with “antigen for” for “antigen”, “were” for “was”, “1×10^6” for “1×10 ^6”
Growth of tumors was monitored every 2 d by using calipers, and tumor volume was calculated by using the formula length×width×width×0.52 mm^3.

[3] = Body weight, haematological evaluation and flow cytometry of tumor-bearing mice after chemotherapy (Example 1)
Description: Mice. Inbred eight-week-old C57BL/6 (H-2b) mice were used in the experiments. Mice were inoculated subcutaneously (s.c.) on the left flank with 1×10 ^6 tumor cells, and tumor growth was monitored every 2 days by caliper measurement. 6 days after the tumor inoculation the animals were treated either with oxaliplatin or doxorubicin. Tumor growth was monitored every two days after the chemotherapeutic treatment and they were sacrificed after two weeks of tumor implantation. Some experiments were carried out until 28 days post-chemo to better assess tumor growth.
Body weight was assessed every two days until sacrifice.
Blood samples were obtained at day 2 and 4 after the chemo-treatment, at day 10 and at sacrifice (14 or 28 days). An autopsy was performed and tumoral mass was assessed.
Haematological evaluation. Red blood cell enumeration, hemoglobin and hematocrit were measured at 2, 4, 10, 14 and 28 days.
White blood cell counts and differential leukocyte formulation were examined at the same time points. Blood samples were used in addition to determine immune cell populations.
Flow cytometric analysis. Cell subset analysis of the CD11c^+, CD11b^+Gr-1^+ and CD11b^+Gr-1^−, CD14^+, CD19^+, CD16^+, CD56^+, CD3^+, CD8^+, CD4^+ was performed. The battery of antibodies used permitted the evaluation of: B and T cell subsets NK, NKT cells, macrophages, dendritic cells, granulocytes.

Structure (SMILES): CCNC(=O)CC[C@H](N)C(=O)O [L-theanine]
- expansion of γδ T cells (γδ T cells): 15 fold

Structure (SMILES): N=C(N)NCCC[C@H](N)C(=O)O [arginine, L-arginine]
- tumor size (MCA-OVA tumor cells; combination with the chemotherapy treatment versus chemotherapy alone, FIG. 4): further reduced the tumor size
- progression of the implanted tumor (MCA-OVA tumor cells; supplemented diet compared to other groups): delayed progression
- loss of CD3+ cells ([1]; after chemotherapy, supplemented diet): partially modulated
- immune cell population / concentration ([1]; second phase (tumor-induced toxicity)): increase immune cell concentration
- fall of erythrocytes after chemotherapy ([1]; supplemented diet, days 6 to 10 post-chemo, FIG. 3): prevented the marked fall of erythrocytes

Structure (SMILES): NC(=O)NCCC[C@H](N)C(=O)O [citrulline, L-citrulline]
- Global lymphocyte population ([1]; supplemented diet): less depressed following chemotherapy

Structure (SMILES): NC(=O)CC[C@H](N)C(=O)O [glutamine]
- Global lymphocyte population ([1]; supplemented diet): less depressed following chemotherapy

Structure (SMILES): O=C1[O][Pt]2([NH][C@@H]3CCCC[C@H]3[NH]2)[O]C1=O [oxaliplatin]
- tumor growth rate versus control (no chemotherapy) ([2]; treatment group oxa-10, FIG. 2, divergence at day 14): slower rate than the control
- tumor growth rate versus control (no chemotherapy) ([2]; treatment group oxa-12.5, FIG. 2, divergence at day 14): slower rate than the control
- white blood cell counts [3]: higher that the baseline counts
